Source: PMC8329922, “Credentialing and Pharmacologically Targeting PTP4A3 Phosphatase as a Molecular Target for Ovarian Cancer” (Biomolecules, 2021)

Experiments:
recombinant human PTP4A3 = biological target: T1, recombinant human PTP4A3 (Homo sapiens, UniProt O75365); experiment: In vitro phosphatase inhibition (DiFMUP substrate); type: biochemical; conditions: Mean ± SEM, N = 3, * N = 6, ** N = 8; DiFMUP 12 μM, 25 °C, 30 min; read-out: in vitro IC50 against recombinant human PTP4A3
T1 construct: The cDNA for the full-length ptp4a3 was obtained from OriGene (SC308739); His6 (N); host or cells: E. coli BL21 (DE3)

OVCAR4 = experiment: Cytotoxicity, 3D spheroids, CellTiter Glo 3D; type: cell-based; conditions: Homo sapiens, OVCAR-4, 48 h exposure, read-out: EC50 (μM ± SEM) OVCAR4
COV362 = experiment: Cytotoxicity, 3D spheroids, CellTiter Glo 3D; type: cell-based; conditions: Homo sapiens, 48 h exposure, read-out: EC50 (μM ± SEM) COV362
COV362-47R = experiment: Cytotoxicity, 3D spheroids, CellTiter Glo 3D; type: cell-based; conditions: Homo sapiens, 48 h exposure, carboplatin resistant line, read-out: EC50 (μM ± SEM) COV362-47R
Kuramochi = experiment: Cytotoxicity, 3D spheroids, CellTiter Glo 3D; type: cell-based; conditions: Homo sapiens, 48 h exposure, read-out: EC50 (μM ± SEM) Kuramochi
OVSAHO = experiment: Cytotoxicity, 3D spheroids, CellTiter Glo 3D; type: cell-based; conditions: Homo sapiens, 48 h exposure, read-out: EC50 (μM ± SEM) OVSAHO
V581 = experiment: Cytotoxicity, 3D spheroids, CellTiter Glo 3D; type: cell-based; conditions: Homo sapiens, 48 h exposure, patient-derived cell line, read-out: EC50 (μM ± SEM) V581
COV362-47R cells = experiment: Viability assay with 3-(4,5-dimethylthiazol-2-yl)-2,5-diphenyltetrazolium bromide; type: cell-based, human; conditions: MTT viability assay, read-out: EC50 (concentration that caused a 50% cytotoxicity)
COV362 parent line = experiment: as above; type: cell-based, human; conditions: MTT viability assay, read-out: EC50 (concentration that caused a 50% cytotoxicity)

T1 sequence (O75365 whole entry): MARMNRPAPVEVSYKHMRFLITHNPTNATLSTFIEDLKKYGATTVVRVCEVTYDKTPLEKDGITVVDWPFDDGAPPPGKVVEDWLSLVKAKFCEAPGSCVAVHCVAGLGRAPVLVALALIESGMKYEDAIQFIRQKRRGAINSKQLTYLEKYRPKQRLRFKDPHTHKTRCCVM

| Compound | IC50 (recombinant human PTP4A3) [µM] | EC50 (OVCAR4) [µM] | EC50 (COV362) [µM] | EC50 (COV362-47R) [µM] | EC50 (Kuramochi) [µM] | EC50 (OVSAHO) [µM] | EC50 (V581) [µM] | EC50 (COV362-47R cells) [µM] | EC50 (COV362 parent line) [µM] |
| --- | --- | --- | --- | --- | --- | --- | --- | --- | --- |
| N=C1C(=O)NC(=O)c2c(-c3ccccc3)csc21 [EJR-912-41] | 0.0637 ± 0.0073 | 26.9 ± 3.9 | 31.6 ± 6.8 | > 50 | 7 | 38.7 ± 1.7 | > 50 | – | – |
| O=C1NC(=O)c2c(-c3ccccc3)csc2C1=O [EJR-912-43] | 0.0537 ± 0.0124 | > 50 | > 50 | > 50 | > 50 | > 50 | > 50 | – | – |
| Cc1cc2c(s1)C(=O)C(=O)NC2=O [EJR-912-50] | 0.0606 ± 0.006 | > 50 | > 50 | > 50 | > 50 | > 50 | > 50 | – | – |
| Cc1cc2c(s1)C(=N)C(=O)NC2=O [EJR-912-57] | 0.0897 ± 0.014 | > 25 | 28.3 ± 3.1 | > 50 | > 50 | > 50 | > 50 | – | – |
| CN1C(=O)C(=N)c2sc(-c3ccccc3)cc2C1=O [NRT-870-59] | – | > 50 | > 50 | > 50 | 30.6 | > 50 | > 50 | – | – |
| O=C(c1cc(Cc2n[nH]c(=O)c3ccccc23)ccc1F)N1CCN(C(=O)C2CC2)CC1 [Olaparib] | – | > 50 | > 50 | > 50 | > 50 | > 50 | > 50 | – | – |
| CC(=O)O[C@H]1C(=O)[C@@]2(C)[C@H]([C@H](OC(=O)c3ccccc3)[C@]3(O)C[C@H](OC(=O)[C@H](O)[C@@H](NC(=O)c4ccccc4)c4ccccc4)C(C)=C1C3(C)C)[C@]1(OC(C)=O)CO[C@@H]1C[C@@H]2O [Paclitaxel, reference compound] | – | > 5 | > 5 | > 5 | > 5 | > 5 | > 5 | – | – |
| CC[C@@]1(O)C(=O)OCc2c1cc1n(c2=O)Cc2cc3c(CN(C)C)c(O)ccc3nc2-1 [Topotecan, reference compound] | – | 2.5 ± 0.8 | 2.5 ± 0.7 | 25.3 ± 9.8 | – | 2.5 ± 1.1 | – | – | – |
| C[C@]1(c2nc3c(C(N)=O)cccc3[nH]2)CCCN1 [Veliparib, reference compound] | – | > 50 | > 50 | > 50 | > 50 | > 50 | > 50 | – | – |
| N.N.O=C([O-])C1(C(=O)[O-])CCC1.[Pt+2] [carboplatin] | – | – | – | – | – | – | – | ~200 | ~20 |
